Here are results for six compounds from patent publication US20090318354A1, “Use of at least one isoform of progesterone receptor membrane component 1 (PGRMC1)” (PROTEOSYS AG, priority 2006, published 2009).

Assay [1] relates to MCF7 breast cancer cells. Kind of assay: ATP-TCA cell viability assay in MCF7 cells and MCF7 cells stably expressing PGRMC1 WT or mutants. The format is cell-based, human.
In assay [2] the test system is AKT. The following applies: S56A/S180A and Y179F/S180A mutants, H2O2 even at 1 mM. The text has this: Antibodies employed were specific for phosphorylated AKT (top), for the polypeptide backbone of AKT (middle), or for the HA-tag on the respective exogenously expressed PGRMC1 constructs.
Assay [3] concerns breast cancer exhibiting a positive ER status. To be noted: patients suffering from breast cancer exhibiting a positive ER status; cited from earlier work.

As to `OO` [H2O2, hydrogen peroxide], the cell viability result in assay [1] (MCF7 cells, 50 μM H2O2, RPMI with 10% FCS) is given as “reduced cell viability”. Also, the “phosphorylation of AKT upon H2O2 treatment” value in assay [2] is listed as “neither of the mutants that survived H2O2 treatment in FIG. 10B exhibited phosphorylation of AKT”.
In the case of `CC(=O)[C@H]1CC[C@H]2[C@@H]3CCC4=CC(=O)CC[C@]4(C)[C@H]3CC[C@]12C` [Progesterone, progesterone], the “proliferative effect relative to other cells” value in assay [1] (PGRMC1-WT cell line, progesterone 10^-7 M, 5 days, charcoal-treated FCS) is “marginal proliferative effect”. In addition, the viability of cells result in assay [1] (cells generally, progesterone 10^-7 M, charcoal-treated FCS, 5 days) was “not affected greatly”.
With `CC[C@H](C)C(=O)O[C@H]1C[C@@H](C)C=C2C=C[C@H](C)[C@H](CC[C@@H]3C[C@@H](O)CC(=O)O3)[C@H]21` [lovastatin], the viability entry in assay [1] (PGRMC1 Y179F/S180A mutant, lower concentrations of lovastatin) is given as “improved viability”; in assay [1] (all cell lines, high levels of lovastatin, 2 days, charcoal-treated FCS), “reduced”.
For `CC/C(=C(\c1ccccc1)c1ccc(OCCN(C)C)cc1)c1ccccc1` [tamoxifen], the “resistance of clone to Tamoxifen” value in assay [1] (clone S56A/S180A, comparable to wild-type PGRMC1 control or native MCF7 cells) is “exhibited resistance”. In addition, the “susceptibility of clone to Tamoxifen” value in assay [1] (clone S180A) is “highly susceptible”. Further, in assay [1] (tamoxifen 10^-8 M, charcoal-treated FCS, 5 days), the viability of cells entry was “reduced viability”. The “cases in which treatment is effective” value in assay [3] is reported as “approximately 50%”.
With estrogen, in assay [1] (estrogen 10^-9 M added to RPMI with charcoal-treated FCS, 5 days), the viability of cells entry is listed as “improved”. In assay [1] (estrogen 10^-9 M plus tamoxifen 10^-8 M), the “rescue of impaired viability in the presence of tamoxifen” value is given as “could not rescue”.
As for methyl-β-cyclodextrin, in assay [1] (cells expressing all PGRMC1 mutants except S180A, 5 mM methyl-beta-cyclodextrin, 2 h, charcoal-treated FCS), the “cell viability relative to MCF7 control cells” value is “drastically reduced cell viability”.
